{
  "source": "ChEMBL document CHEMBL1150577",
  "about": "“Inhibition of glucose and dehydroascorbic acid uptakes by resveratrol in human transformed myelocytic cells” (J Nat Prod, 2001)",
  "key": {"U-937 [1]": {"system": "U-937", "assay": "Inhibition of 2-[1,2-3H(N)]deoxy-D-glucose uptake in human U937 cells at >100 uM by scintillation spectrometry in presence of sodium-free buffer", "format": "functional"}, "U-937 [2]": {"system": "U-937", "assay": "Inhibition of 2-[1,2-3H(N)]deoxy-D-glucose uptake in human U937 cells at >500 uM by scintillation spectrometry in presence of buffer containing NaCl and Na2HPO4", "format": "functional"}, "U-937 [3]": {"system": "U-937", "assay": "Inhibition of [14C]dehydroascorbic acid uptake in human U937 cells by scintillation spectrometry in presence of sodium-free buffer", "format": "functional, cell-based"}, "HL-60 [4]": {"system": "HL-60", "assay": "Inhibition of [14C]dehydroascorbic acid uptake in human HL60 cells at 32 uM by scintillation spectrometry in presence of buffer containing NaCl and Na2HPO4", "format": "functional"}, "U-937 [5]": {"system": "U-937", "assay": "Inhibition of 2-[1,2-3H(N)]deoxy-D-glucose uptake in human U937 cells at 73 uM by scintillation spectrometry in presence of buffer containing NaCl and Na2HPO4", "format": "functional"}, "[6]": {"target": "T1, Solute carrier family 2, facilitated glucose transporter member 1 (Rattus norvegicus) (UniProt P11167)", "T1 sequence (whole entry)": "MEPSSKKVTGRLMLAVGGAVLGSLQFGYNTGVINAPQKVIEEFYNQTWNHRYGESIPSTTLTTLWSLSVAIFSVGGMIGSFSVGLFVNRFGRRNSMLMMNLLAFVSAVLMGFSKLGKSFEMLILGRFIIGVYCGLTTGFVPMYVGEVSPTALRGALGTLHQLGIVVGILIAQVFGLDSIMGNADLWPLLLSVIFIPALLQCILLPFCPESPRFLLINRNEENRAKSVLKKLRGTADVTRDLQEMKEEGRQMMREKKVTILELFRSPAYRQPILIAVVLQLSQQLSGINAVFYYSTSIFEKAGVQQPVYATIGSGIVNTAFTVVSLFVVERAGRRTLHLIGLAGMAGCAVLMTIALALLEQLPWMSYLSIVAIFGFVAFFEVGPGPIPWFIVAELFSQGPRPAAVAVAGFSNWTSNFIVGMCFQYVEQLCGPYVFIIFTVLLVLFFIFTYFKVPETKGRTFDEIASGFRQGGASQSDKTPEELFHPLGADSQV", "assay": "Blockade of rat Glut1 expressed in CHO cells assessed as inhibition of 2-[1,2-3H(N)]deoxy-D-glucose uptake by scintillation spectrometry", "format": "cell-based"}, "HL-60 [7]": {"system": "HL-60", "assay": "Inhibition of 2-[1,2-3H(N)]deoxy-D-glucose uptake in human HL60 cells by scintillation spectrometry in presence of sodium-free buffer", "format": "functional, cell-based"}, "HL-60 [8]": {"system": "HL-60", "assay": "Inhibition of 2-[1,2-3H(N)]deoxy-D-glucose uptake in human HL60 cells by Michaelis-Menten plot", "format": "functional, cell-based"}, "HL-60 [9]": {"system": "HL-60", "assay": "Inhibition of 2-[1,2-3H(N)]deoxy-D-glucose uptake in human HL60 cells at >500 uM by scintillation spectrometry in presence of buffer containing NaCl and Na2HPO4", "format": "functional"}, "HL-60 [10]": {"system": "HL-60", "assay": "Inhibition of [14C]dehydroascorbic acid uptake in human HL60 cells by scintillation spectrometry in presence of buffer containing NaCl and Na2HPO4", "format": "functional, cell-based"}, "HL-60 [11]": {"system": "HL-60", "assay": "Inhibition of 2-[1,2-3H(N)]deoxy-D-glucose uptake in human HL60 cells at 75 uM by scintillation spectrometry in presence of buffer containing NaCl and Na2HPO4", "format": "functional"}, "U-937 [12]": {"system": "U-937", "assay": "Inhibition of 2-[1,2-3H(N)]deoxy-D-glucose uptake in human U937 cells by scintillation spectrometry in presence of sodium-free buffer", "format": "functional, cell-based"}, "[13]": {"target": "T1, Solute carrier family 2, facilitated glucose transporter member 1 (Rattus norvegicus)", "assay": "Blockade of rat Glut1 expressed in CHO cells assessed as inhibition of [14C]dehydroascorbic acid uptake by scintillation spectrometry", "format": "cell-based"}, "U-937 [14]": {"system": "U-937", "assay": "Inhibition of [14C]dehydroascorbic acid uptake in human U937 cells by scintillation spectrometry in presence of buffer containing NaCl and Na2HPO4", "format": "functional, cell-based"}, "U-937 [15]": {"system": "U-937", "assay": "Inhibition of [14C]dehydroascorbic acid uptake in human U937 cells by Michaelis-Menten plot", "format": "functional, cell-based"}, "[16]": {"target": "T2, Solute carrier family 2, facilitated glucose transporter member 3 (Homo sapiens) (UniProt P11169)", "T2 sequence (whole entry)": "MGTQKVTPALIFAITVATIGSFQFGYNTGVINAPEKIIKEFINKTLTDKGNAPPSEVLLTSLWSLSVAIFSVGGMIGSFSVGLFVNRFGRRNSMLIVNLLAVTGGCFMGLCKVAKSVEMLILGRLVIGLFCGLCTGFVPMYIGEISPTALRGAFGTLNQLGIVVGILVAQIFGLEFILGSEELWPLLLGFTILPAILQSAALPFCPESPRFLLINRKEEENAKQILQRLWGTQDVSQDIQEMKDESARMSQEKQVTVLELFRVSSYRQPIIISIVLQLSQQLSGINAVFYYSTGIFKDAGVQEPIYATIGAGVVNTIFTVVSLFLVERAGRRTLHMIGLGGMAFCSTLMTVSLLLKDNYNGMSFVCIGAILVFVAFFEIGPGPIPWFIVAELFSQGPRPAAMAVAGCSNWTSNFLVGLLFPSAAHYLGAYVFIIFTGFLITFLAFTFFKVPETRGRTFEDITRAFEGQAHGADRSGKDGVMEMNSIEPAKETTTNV", "assay": "Blockade of human Glut3 expressed in CHO cells assessed as inhibition of 2-[1,2-3H(N)]deoxy-D-glucose uptake by scintillation spectrometry", "format": "cell-based"}, "U-937 [17]": {"system": "U-937", "assay": "Inhibition of 2-[1,2-3H(N)]deoxy-D-glucose uptake in human U937 cells by Michaelis-Menten plot", "format": "functional, cell-based"}, "HL-60 [18]": {"system": "HL-60", "assay": "Inhibition of [14C]dehydroascorbic acid uptake in human HL60 cells by scintillation spectrometry in presence of sodium-free buffer", "format": "functional, cell-based"}, "[19]": {"target": "T2, Solute carrier family 2, facilitated glucose transporter member 3 (Homo sapiens)", "assay": "Blockade of human Glut3 expressed in CHO cells assessed as inhibition of [14C]dehydroascorbic acid uptake by scintillation spectrometry", "format": "cell-based"}, "HL-60 [20]": {"system": "HL-60", "assay": "Inhibition of 2-[1,2-3H(N)]deoxy-D-glucose uptake in human HL60 cells at >100 uM by scintillation spectrometry in presence of sodium-free buffer", "format": "functional"}, "U-937 [21]": {"system": "U-937", "assay": "Inhibition of [14C]dehydroascorbic acid uptake in human U937 cells at 38 uM by scintillation spectrometry in presence of buffer containing NaCl and Na2HPO4", "format": "functional"}},
  "note": "Calls of active or inactive are those of the source. The calls are words filed in the database; no cut-off is given here.",
  "data": [
    {"smiles": "Oc1ccc(/C=C/c2cc(O)cc(O)c2)cc1", "note": "[RESVERATROL]", "values": [
      {"measurement": "inhibition (INH)", "setting": "U-937 [1]", "result": 10, "unit": "%"},
      {"measurement": "inhibition (INH)", "setting": "U-937 [2]", "result": 20, "unit": "%"},
      {"measurement": "Activity", "setting": "U-937 [3]", "result": "Active"},
      {"measurement": "inhibition at 32 µM", "setting": "HL-60 [4]", "result": 50, "unit": "%"},
      {"measurement": "inhibition at 73 µM", "setting": "U-937 [5]", "result": 50, "unit": "%"},
      {"measurement": "Activity", "setting": "[6]", "result": "Active"},
      {"measurement": "Activity", "setting": "HL-60 [7]", "result": "Active"},
      {"measurement": "Ki", "setting": "HL-60 [8]", "result": 85, "unit": "µM"},
      {"measurement": "inhibition (INH)", "setting": "HL-60 [9]", "result": 20, "unit": "%"},
      {"measurement": "Activity", "setting": "HL-60 [10]", "result": "Dose-dependent effect"},
      {"measurement": "inhibition at 75 µM", "setting": "HL-60 [11]", "result": 50, "unit": "%"},
      {"measurement": "Activity", "setting": "U-937 [12]", "result": "Active"},
      {"measurement": "Activity", "setting": "[13]", "result": "Active"},
      {"measurement": "Activity", "setting": "U-937 [14]", "result": "Dose-dependent effect"},
      {"measurement": "Ki", "setting": "U-937 [15]", "result": 35, "unit": "µM"},
      {"measurement": "Activity", "setting": "[16]", "result": "Active"},
      {"measurement": "Ki", "setting": "U-937 [17]", "result": 89, "unit": "µM"},
      {"measurement": "Activity", "setting": "HL-60 [18]", "result": "Active"},
      {"measurement": "Activity", "setting": "[19]", "result": "Active"},
      {"measurement": "inhibition (INH)", "setting": "HL-60 [20]", "result": 10, "unit": "%"},
      {"measurement": "inhibition at 38 µM", "setting": "U-937 [21]", "result": 50, "unit": "%"}
    ]}
  ]
}
